# Test system: coenzyme-linked glucose dehydrogenase
# Assay: Inhibitor test with 1,10-phenanthroline
# Assay type: biochemical, Aspergillus terreus
# Protocol: 1.0 ml of 0.1 M potassium phosphate buffer (pH 7.0), 1.0 ml of 1.0 M D-glucose, 0.1 ml of 3 mM 2,6-dichlorophenolindophenol (hereinafter, referred to as DCIP), 0.2 ml of 3 mM 1-methoxy-5-methylphenazium methylsulfate, and 0.65 ml of water are placed in a 3 ml quartz cell (with an optical path length of 1 cm), and then the cell is placed in a spectrophotometer equipped with a thermostat cell holder. After the cell is incubated at 37° C. for five minutes, 0.05 ml of an enzyme liquid is added thereto, followed by measuring absorbance change (αABS/min) of DCIP at 600 nm. The mol-absorption coefficient of DCIP at pH 7.0 is defined to be 16.3×10^3 cm^−1M^−1. Since one unit of the enzyme activity is substantially equivalent to the enzyme activity that reduces 1 μmol of DCIP per minute, the enzyme activity is determined by absorbance change in accordance with the following formula. To the reaction system in the activity measurement method-1, 1,10-phenanthroline dissolved in methanol so that each final concentration was 1 mM, 5 mM, 10 mM, 25 mM, or 50 mM, was added, followed by measuring the activity of the purified enzymes 1 to 6 by the activity measurement method-1. […] As a control, methanol was added to the reaction system in the activity measurement method-1 at the final concentration of 10% (v/v), and then the activity was measured by the activity measurement method-1. […]
structure (smiles),measurement,setting,value
"c1cnc2c(c1)ccc1cccnc12 [1,10-phenanthroline]",inhibition ratio,"1,10-phenanthroline at final concentration of 1 mM or more, purified enzymes 1 to 6, 10% (v/v) methanol",≥ 60%
same,"inhibition of the activity by 1,10-phenanthroline","GLD according to the invention, general characteristics, concentration not given",At least 60%
